Reference: patent US12441727B2, “Tricyclic compounds as inhibitors of KRAS” (Incyte Corporation, priority 2021, dated 2025)
Like-named read-outs stand apart in the source and are kept apart here.

Key:
[1] = molecular target: KRAS G12C (Homo sapiens, UniProt P01116, G12C); assay: GDP-GTP exchange assay (KRAS_G12C exchange assay); format: biochemical; conditions: bodipy-loaded KRAS G12C 2.5 nM, SOS1 150 nM, 2 hours pre-incubation with inhibitor; read-out: G12C_exchange
In short: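 Bodipy-GDP-loaded KRAS G12C (2.5 nM final) preincubated 2 hours with compound in 25 mM Hepes pH 7.5, 50 mM NaCl, 10 mM MgCl2, 0.01% Brij-35; exchange started with 500 uM GppNHp and 150 nM SOS1, run 2 hours at ambient temperature. Fluorescence read at 485/520 nm; IC50 by four-parameter logistic fit.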

[2] = test system: KRAS_G12C pERK; assay: Cellular pERK HTRF assay (KRAS_G12C pERK assay); format: cell-based, human; conditions: KRAS G12C cells, 4 hours incubation with compound, read-out: G12C_pERK
In short: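 KRAS-mutant (G12C, G12D, G12V) and KRAS WT cancer cell lines, plated overnight in RPMI/10% FBS, were treated with compound (0.1% DMSO) at 37 °C for 4 h (G12C, G12V) or 2 h (G12D). Lysates were probed with anti-phospho-ERK1/2 HTRF antibody pair read at 665/620 nm; IC50 fitted.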

[3] = test system: KRAS_G12C pERK in MIA PaCa-2 cells; assay: Whole Blood pERK1/2 HTRF assay (KRAS_G12C WB pERK assay); format: cell-based, human; conditions: Homo sapiens, compound in whole blood, 4 hours, read-out: G12C_WB_pERK
Method: MIA PaCa-2 cells (KRAS G12C; ATCC® CRL-1420), HPAF-II (KRAS G12D; ATCC® CRL-1997) and YAPC (KRAS G12V; DSMZ ACC382) are maintained in RPMI 1640 with 10% FBS (Gibco/Life Technologies). For MIA PaCa-2 assay, cells are seeded into 96 well tissue culture plates (Corning #3596) at 25000 cells per well in 100 uL media and cultured for 2 days at 37° C., 5% CO2 before the assay. For HPAF-II and YAPC assay, cells are seeded in 96 well tissue culture plates at 50000 cells per well in 100 uL media and cultured for 1 day before the assay. Whole Blood are added to the 1 uL dots of compounds (prepared in DMSO) in 96 well plates and mixed gently by pipetting up and down so that the concentration of the compound in blood is 1× of desired concentration, in 0.5% DMSO. The media is aspirated from the cells and 50 uL per well of whole blood with test compound is added and incubated for 4 hours for MIA PaCa and YAPC assay; or 2 hours for HPAF-II assay, respectively at 37° C., 5% CO2. After dumping the blood, the plates are gently washed twice by adding PBS to the side of the wells and dumping the PBS from the plate onto a paper towel, tapping the plate to drain well. Fifty ul/well of 1× lysis buffer #1 (Cisbio) with blocking reagent (Cisbio) and Benzonase nuclease (Sigma Cat #E1014-5KU, 1:10000 final concentration) is then added and incubated at room temperature for 30 minutes with shaking (250 rpm). Following lysis, 16 uL of lysate is transferred into 384-well Greiner small volume white plate using an Assist Plus (Integra Biosciences, NH). Four uL of 1:1 mixture of anti Phospho-ERK 1/2 d2 and anti Phospho-ERK 1/2 Cryptate (Cisbio) is added to the wells using the Assist Plus and incubated at room temperature overnight in the dark. Plates are read on the Pherastar plate reader at 665 nm and 620 nm wavelengths. Data are analyzed in Genedata Screener using SmartFit for IC50 values.

[4] = Human whole blood stability; format: in vitro ADME; conditions: percent remaining at 4 hr, 1 μM, 37° C.
Method: The whole blood stability of the exemplified compounds was determined by LC-MS/MS. The 96-Well Flexi-Tier™ Block (Analytical Sales & Services, Inc, Flanders, NJ) is used for the incubation plate containing 1.0 mL glass vials with 0.5 mL of blood per vial (pooled gender, human whole blood sourced from BIOIVT, Hicksville, NY or similar). Blood is pre-warmed in water bath to 37° C. for 30 minutes. 96-deep well analysis plate is prepared with the addition of 100 μL ultrapure water/well. 50 μL chilled ultrapure water/well is added to 96-deep well sample collection plate and covered with a sealing mat. 1 μL of 0.5 mM compound working solution (DMSO:water) is added to the blood in incubation plate to reach final concentrations of 1 μM, mixed by pipetting thoroughly and 50 μL is transferred 50 into the T=0 wells of the sample collection plate. Blood is allowed to sit in the water for 2 minutes and then 400 μL stop solution/well is added (acetonitrile containing an internal standard). The incubation plate is placed in the Incu-Shaker CO2 Mini incubator (Benchmark Scientific, Sayreville, NJ) at 37° C. with shaking at 150 rpm. At 1, 2 and 4-hr, the blood samples are mixed thoroughly by pipetting and 50 μL is transferred into the corresponding wells of the sample collection plate. Blood is allowed to sit in the water for 2 minutes and then 400 μL of stop solution/well is added. The collection plate is sealed and vortexed at 1700 rpm for 3 minutes (VX-2500 Multi-Tube Vortexer, VWR International, Radnor, PA), and samples are then centrifuged in the collection plate at 3500 rpm for 10 minutes (Allegra X-14R Centrifuge Beckman Coulter, Indianapolis, IN). 100 μL of supernatant/well is transferred from the sample collection plate into the corresponding wells of the analysis plate. The final plate is vortexed at 1700 rpm for 1 minute and analyze samples by LC-MS/MS. The peak area ratio of the 1, 2, and 4 hr samples relative to T=0 is used to determine the percent remaining. The natural log of the percent remaining versus time is used determine a slope to calculate the compounds half-life in blood (t1/2=0.693/slope).

KRAS G12C, sequence (P01116 1-188 isoform P01116-2 G12C): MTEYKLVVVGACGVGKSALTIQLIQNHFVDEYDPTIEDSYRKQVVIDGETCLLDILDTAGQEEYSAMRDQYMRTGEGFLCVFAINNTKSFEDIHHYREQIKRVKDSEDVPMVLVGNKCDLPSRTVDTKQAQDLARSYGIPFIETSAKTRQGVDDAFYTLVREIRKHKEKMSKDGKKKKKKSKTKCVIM

## C=CC(=O)N1CCC(n2nnc3c(O[C@@H](C)[C@@H]4CCCN4C)nc4c(F)c(-c5ccc(F)c6cccnc56)c(C(F)(F)F)cc4c32)CC1 (single isomer, unassigned) [Example 5a]
[1]
  IC50: ≤ 50 nM
[2]; Homo sapiens, 4 h
  IC50: ≤ 50 nM
[3]
  IC50: 50 to 100 nM
[4]
  Human whole blood stability at 4 hr: †† (WBS >70% but ≤90%)

## COC/C=C/C(=O)N1CC[C@H](n2nnc3c(N4CC(C)(N(C)C)C4)nc4c(F)c(-c5ccc(F)c6cccnc56)c(C(F)(F)F)cc4c32)C[C@H]1CC#N (single isomer, unassigned) [Example 20]
[1]
  IC50: ≤ 50 nM
[2]; Homo sapiens, 4 h
  IC50: ≤ 50 nM
[3]
  IC50: 100 to 1000 nM
[4]
  Human whole blood stability at 4 hr: ††† (WBS >90%)

## C=C(F)C(=O)N1CC[C@H](n2nnc3c(N4CC(C)(N(C)CC)C4)nc4c(F)c(-c5c(C)c(C)cc6[nH]ncc56)c(C)cc4c32)C[C@H]1CC#N (single isomer, unassigned) [Example 30]
[1]
  IC50: ≤ 50 nM
[2]; Homo sapiens, 4 h
  IC50: ≤ 50 nM
[3]
  IC50: 50 to 100 nM
[4]
  Human whole blood stability at 4 hr: ††† (WBS >90%)

## C=CC(=O)N1CC[C@H](n2nnc3c(O[C@@H](C)[C@@H]4CCCN4C)nc4c(F)c(-c5cccc6cccc(C#N)c56)c(C)cc4c32)C[C@H]1C (single isomer, unassigned) [Example 14b]
[1]
  IC50: ≤ 50 nM
[2]; Homo sapiens, 4 h
  IC50: ≤ 50 nM
[3]
  IC50: ≤ 50 nM
[4]
  Human whole blood stability at 4 hr: ††† (WBS >90%)

## C=CC(=O)N1CCC(n2nnc3c(O[C@@H](C)[C@@H]4CCCN4C)nc4c(F)c(-c5cccc6cccc(C#N)c56)c(C)cc4c32)CC1 (single isomer, unassigned) [Example 11b]
[1]
  IC50: ≤ 50 nM
[2]
  IC50: ≤ 50 nM
[3]
  IC50: ≤ 50 nM
[4]
  Human whole blood stability at 4 hr: †† (WBS >70% but ≤90%)

## C=C(F)C(=O)N1CC[C@H](n2cnc3c(O[C@@H](C)[C@@H]4CCCN4C)nc4c(F)c(-c5cccc(C)c5Cl)c(C)cc4c32)C[C@H]1CC#N [Example 13, 2-((2S,4S)-4-(7-(2-chloro-3-methylphenyl)-6-fluoro-8-methyl-4-((S)-1-((S)-1-methylpyrrolidin-2-yl)ethoxy)-1H-imidazo[4,5-c]quinolin-1-yl)-1-(2-fluoroacryloyl)piperidin-2-yl)acetonitrile]
[1]
  IC50: ≤ 50 nM
[2]; Homo sapiens, 4 h
  IC50: ≤ 50 nM
[3]
  IC50: 100 to 1000 nM
[4]
  Human whole blood stability at 4 hr: †† (WBS >70% but ≤90%)

## C=C(F)C(=O)N1CC[C@H](n2nnc3c(N4CC(C)(N(C)CC)C4)nc4c(F)c(-c5c(C)c(F)cc6[nH]ncc56)c(Cl)cc4c32)C[C@H]1CC#N (single isomer, unassigned) [Example 35a]
[1]
  IC50: ≤ 50 nM
[2]; Homo sapiens, 4 h
  IC50: ≤ 50 nM
[3]
  IC50: 50 to 100 nM
[4]
  Human whole blood stability at 4 hr: ††† (WBS >90%)

## C[C@H](Oc1nc2c(F)c(-c3ccc(F)c4cccnc34)c(C(F)(F)F)cc2c2c1nnn2[C@H]1CCN(C(=O)/C=C/CF)[C@H](CC#N)C1)[C@@H]1CCCN1C (single isomer, unassigned) [Example 4a]
[1]
  IC50: ≤ 50 nM
[2]; Homo sapiens, 4 h
  IC50: ≤ 50 nM
[3]
  IC50: ≤ 50 nM
[4]
  Human whole blood stability at 4 hr: ††† (WBS >90%)

## CN(C)C1(C)CN(c2nc3c(F)c(-c4ccc(F)c5cccnc45)c(C(F)(F)F)cc3c3c2nnn3[C@H]2CCN(C(=O)/C=C/CF)[C@H](CC#N)C2)C1 (single isomer, unassigned) [Example 1a]
[1]
  IC50: ≤ 50 nM
[2]; Homo sapiens, 4 h
  IC50: ≤ 50 nM
[3]
  IC50: ≤ 50 nM
[4]
  Human whole blood stability at 4 hr: ††† (WBS >90%)

## COC/C=C/C(=O)N1CC[C@H](n2nnc3c(N4CC(C)(N(C)C)C4)nc4c(Cl)c(-c5ccc(F)c6cccnc56)c(Cl)cc4c32)C[C@H]1CC#N (single isomer, unassigned) [Example 18a]
[1]
  IC50: ≤ 50 nM
[2]; Homo sapiens, 4 h
  IC50: ≤ 50 nM
[3]
  IC50: 100 to 1000 nM
[4]
  Human whole blood stability at 4 hr: ††† (WBS >90%)

## COC/C=C/C(=O)N1CC[C@H](n2nnc3c(O[C@@H](C)[C@@H]4CCCN4C)nc4c(F)c(-c5ncc(F)c6ccccc56)c(C)cc4c32)C[C@H]1CC#N [Example 21, 2-((2S,4S)-4-(6-fluoro-7-(4-fluoroisoquinolin-1-yl)-8-methyl-4-((S)-1-((S)-1-methylpyrrolidin-2-yl)ethoxy)-1H-[1,2,3]triazolo[4,5-c]quinolin-1-yl)-1-((E)-4-methoxybut-2-enoyl)piperidin-2-yl)acetonitrile]
[1]
  IC50: ≤ 50 nM
[2]; Homo sapiens, 4 h
  IC50: ≤ 50 nM
[3]
  IC50: ≤ 50 nM
[4]
  Human whole blood stability at 4 hr: ††† (WBS >90%)

## C=CC(=O)N1CC[C@H](n2nnc3c(O[C@@H](C)[C@@H]4CCCN4C)nc4c(F)c(-c5cccc6c5c(CC#N)nn6C)c(C)cc4c32)C[C@H]1C (single isomer, unassigned) [Example 28b]
[1]
  IC50: ≤ 50 nM
[2]; Homo sapiens, 4 h
  IC50: ≤ 50 nM
[3]
  IC50: 50 to 100 nM
[4]
  Human whole blood stability at 4 hr: †† (WBS >70% but ≤90%)

## Cc1cc2c(nc(O[C@@H](C)[C@@H]3CCCN3C)c3nnn(C4CCN(C(=O)/C=C/CF)CC4)c32)c(F)c1-c1cccc2cccc(C#N)c12 (single isomer, unassigned) [Example 16b]
[1]
  IC50: ≤ 50 nM
[2]
  IC50: ≤ 50 nM
[3]
  IC50: 50 to 100 nM
[4]
  Human whole blood stability at 4 hr: ††† (WBS >90%)

## Cc1cccc(-c2c(C)cc3c(nc(N4CC(C)(N(C)C)C4)c4ncn([C@H]5CCN(C(=O)/C=C/CF)[C@H](CC#N)C5)c43)c2F)c1Cl [Example 12, 2-((2S,4S)-4-(7-(2-chloro-3-methylphenyl)-4-(3-(dimethylamino)-3-methylazetidin-1-yl)-6-fluoro-8-methyl-1H-imidazo[4,5-c]quinolin-1-yl)-1-((E)-4-fluorobut-2-enoyl)piperidin-2-yl)acetonitrile]
[1]
  IC50: ≤ 50 nM
[2]; Homo sapiens, 4 h
  IC50: ≤ 50 nM
[3]
  IC50: ≤ 50 nM
[4]
  Human whole blood stability at 4 hr: ††† (WBS >90%)

## C=C(F)C(=O)N1CC[C@H](n2nnc3c(N4CC(C)(N(C)CC)C4)nc4c(F)c(-c5c(C)c(C)cc6[nH]ncc56)c(Cl)cc4c32)C[C@H]1CC#N (single isomer, unassigned) [Example 33a]
[1]
  IC50: ≤ 50 nM
[2]; Homo sapiens, 4 h
  IC50: ≤ 50 nM
[3]
  IC50: 50 to 100 nM
[4]
  Human whole blood stability at 4 hr: †† (WBS >70% but ≤90%)
